The values below come from patent US4758586A, “Indolyl compounds and hyposensitivity use thereof” (USV Pharmaceutical Corp., priority 1986, dated 1988).

The target in assay [1] is T1, 5-lipoxygenase (Rattus norvegicus, UniProt P12527).
T1 construct: A suspension of rat neutrophils in buffer; endogenous in cells; host or cells: rat neutrophils (PMN)
T1 sequence (P12527 1-673): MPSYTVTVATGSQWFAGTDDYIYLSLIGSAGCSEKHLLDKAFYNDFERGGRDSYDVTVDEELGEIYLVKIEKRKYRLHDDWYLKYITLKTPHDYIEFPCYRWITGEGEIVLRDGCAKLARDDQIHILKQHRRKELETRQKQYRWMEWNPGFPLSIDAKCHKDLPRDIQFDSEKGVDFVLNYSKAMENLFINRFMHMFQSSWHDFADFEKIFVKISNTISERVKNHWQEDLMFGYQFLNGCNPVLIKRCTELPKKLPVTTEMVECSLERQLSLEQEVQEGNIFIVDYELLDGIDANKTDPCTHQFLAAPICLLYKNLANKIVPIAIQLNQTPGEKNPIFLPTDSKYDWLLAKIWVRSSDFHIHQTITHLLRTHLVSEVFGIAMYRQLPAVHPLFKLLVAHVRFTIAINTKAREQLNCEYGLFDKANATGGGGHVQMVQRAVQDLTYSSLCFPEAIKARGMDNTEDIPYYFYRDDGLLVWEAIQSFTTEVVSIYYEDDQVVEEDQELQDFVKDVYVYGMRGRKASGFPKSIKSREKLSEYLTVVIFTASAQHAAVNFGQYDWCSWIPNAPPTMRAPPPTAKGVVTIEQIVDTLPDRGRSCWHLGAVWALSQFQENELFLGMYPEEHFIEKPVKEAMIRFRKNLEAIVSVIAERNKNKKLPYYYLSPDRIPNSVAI
The assay can be described thus: Protocol for detecting inhibitors of the lipoxygenase pathway (5-HETE formation in rat neutrophils). It counts as cell-based. The following applies: rat PMN, [14C]-arachidonic acid + A23187, 5-HETE; read-out: LOX, (RAT PMN) I50. As to the method: Protocol for Detecting Inhibitors of the Lipoxygenase Pathway
A suspension of rat neutrophils in buffer is incubated for 3 minutes at 30° C. with [^14 C]-arachidonic acid (AA) and Calcium Ionophore A23187. Citric acid (2M) is used to quench the reaction. Following the addition of a trace amount of (^3 H)-5-HETE together with an excess of unlabeled 5-HETE to each tube, the mixture is extracted with chloroform/methanol. The organic layer is washed with dilute acid and an aliquot is transferred to glass tubes and dried. The residue is dissolved in a small volume of chloroform and an aliquot is spotted on silica get TLC sheets, which are developed with an ethyl acetate/isooctane/water acetic acid solvent system. The 5-HETE spots are visualized with iodine, cut out and placed in scintillation vials for counting. After adjusting for the extraction efficiency, the amount (pmole) of [^14 C]-5-HETE in each of the tubes is quantitated. The net pmoles of 5-HETE are obtained by subtracting the pmoles of 5-HETE in the tubes containing […]. The ability of the test compounds to modulate the activity of this enzyme is determined by a decrease or increase in the net amount of 5-HETE produced.

In assay [2] the target is T2, Phospholipase A2 (PLA2) (Rattus norvegicus, UniProt P14423).
T2 construct: obtained by aggregation of purified rat platelets; from tissue; host or cells: rat platelets (enzyme obtained by aggregation)
T2 sequence (P14423 22-146): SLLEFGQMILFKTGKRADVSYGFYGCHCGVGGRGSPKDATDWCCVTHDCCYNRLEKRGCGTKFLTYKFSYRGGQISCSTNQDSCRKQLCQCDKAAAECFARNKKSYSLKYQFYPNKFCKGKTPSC
The assay can be described thus: In vitro assay for inhibitors of Phospholipase A2 (PLA2) from rat platelets. To be noted: pH 7.2, 37° C.; read-out: PLA2, I50. It counts as biochemical. From the text:
B. In Vitro Assay For Inhibitors of Phospholipase A2 Assayed at pH 7.0 (PLA2)
The PLA2 employed in this screen is obtained by aggregation of purified rat platelets. In the enzyme assay phosphatidylcholine having ^14 C-labeled palmitate residues at R1 and R2 is employed as substrate. PLA2 acts by cleaving the R2 fatty acid ester bond yielding free fatty acid and lysophosphatidyl choline as follows: [drawing 19]
Following completion of the reaction, the assay medium is acidified and extracted with hexane, which takes up unreacted substrate and free fatty acid product. The hexane extract is passed over a short silica column which retains 99% of the phosphatidyl choline. The ^14 C-labeled palmitic acid is not retained (90% recovery in eluate) and is collected directly in scintillation counting vials. The released palmitic acid is conveniently quantitated by liquid scintillation spectrometry.
The compounds were tested at 100 uM in a buffer containing 0.3 mM unlabeled phosphatidylcholine (PC), 20-30,000 cpm of ^14 C(CPC), […], 1 mM CaCl2 and 50 mM tris-HCl adjusted to pH 7.2 with 1N NaOH. […] The temperature of the buffer was maintained at a temperature of 37° C. The reaction was initiated by addition of the enzyme and it was terminated 30 minutes later by the addition of […] of 1N HCl.
Following acidification, the samples were extracted with 2 ml of 2-propanol and 2 ml of hexane, vortexed and allowed to stand until the phases separated. Free fatty acids (FFA) and some unreacted substrate were taken up in the isopropanol-saturated hexane. The hexane phase of the extraction mixture was transferred to a short silica gel column which retained […] but not the FFA. The column effluent was collected directly in scintillation vials. The columns were washed once with an additional 2 ml of hexane. The radio labeled FFA were quantitated by liquid scintillation spectrometry.

Assay [3] deals with Phospholipase C (PLC). The assay can be described thus: In vitro assay for inhibitors of Phospholipase C (PLC) from rat platelets. It counts as biochemical. The following applies: read-out: PLC, I50. From the text:
A. Protocol For In Vitro Assay For Inhibitors Of Phospholipase C (PLC)
The PLC employed in this screen is obtained by aggregation of purified rat platelets in the presence of CaCl2 and ADP. In the enzyme assay phosphatidylinositol having ^3 H -labeled arachidonate residues at R2 is employed as substrate. PLC acts by cleaving the phosphate ester bond yielding diglyceride as follows: [drawing 18]
Following completion of the reaction, the assay medium is acidified and extracted with hexane which takes up unreacted substrate and diglyceride. The hexane extract is passed over a short silica gel column which retains 99% of the phosphatidylinositol. The ^3 H-labeled diglyceride is not retained […]. The diglyceride is conveniently quantitated by liquid scintillation spectrometry.
The compounds were tested at 300 u in a buffer containing 0.06 mM unlabeled phosphatidylcholine (PC), 20-30,000 cpm of (CPC), 150 mM NaCl, 5 mM CaCl2 and 50 mM tris(hydroxymethyl)methylaminopropanesulfonic acid buffer, adjusted to pH 9.0 with 1N NaOH. The temperature of the buffer was maintained at a temperature of 37° C. The reaction was initiated by addition of the enzyme and it was terminated 10 minutes later by addition of 1 ml of 1N HCl.
Following acidification, the samples were extracted with 2 ml of isopropyl alcohol and 2 ml of hexane, vortexed and allowed to stand until the phases separate. […] and some unreacted substrate were taken up in the isopropanol-saturated hexane. The hexane phase of the extraction mixture was transferred to a short silica gel column which retains unreacted phosphatidylinositol, but not the 3H-diglyceride. The column effluent was collected directly in scintillation vials. The columns were washed once with additional 2 ml of hexane. The radiolabelled diglycerides were quantitated by liquid scintillation.

For `CCC(=CC=Cc1cn(Cc2ccccc2)c2ccccc12)C(=O)O` [Example 9, 5-(1-Benzylindol-3-yl)-2-Ethyl-2,4-Pentadienoic Acid], the results for the IC50 in assay [1], in assay [2] and in assay [3] were 2.3 µM, 47 µM and 37 µM, respectively.
